Laboratory results as given in US8143241B2, “DNA damage repair inhibitors for treatment of cancer” (Kudos Pharmaceuticals Limited, priority 2003, dated 2012).
pIC50: −log10 of the molar value.

Legend:
[1] = system: Brca1 and Brca2 deficient cells; experiment: Mitotic chromosome analysis; assay type: cell-based, mouse; settings: 24 hours treatment
Procedure: ES cells were seeded onto gelatin, treated for 24 hours with chemical inhibitors, followed by colcemid treatment for 1 hour. Cells were harvested, fixed, dropped onto slides, dried and stained with DAPI before chromosome analysis under a microscope.

PARP-2 = PARP-2 (Homo sapiens, UniProt Q9UGN5); experiment: Inhibition of poly(ADP-ribose) polymerase activity of PARP-2; assay type: biochemical
PARP-2, sequence (Q9UGN5 whole entry): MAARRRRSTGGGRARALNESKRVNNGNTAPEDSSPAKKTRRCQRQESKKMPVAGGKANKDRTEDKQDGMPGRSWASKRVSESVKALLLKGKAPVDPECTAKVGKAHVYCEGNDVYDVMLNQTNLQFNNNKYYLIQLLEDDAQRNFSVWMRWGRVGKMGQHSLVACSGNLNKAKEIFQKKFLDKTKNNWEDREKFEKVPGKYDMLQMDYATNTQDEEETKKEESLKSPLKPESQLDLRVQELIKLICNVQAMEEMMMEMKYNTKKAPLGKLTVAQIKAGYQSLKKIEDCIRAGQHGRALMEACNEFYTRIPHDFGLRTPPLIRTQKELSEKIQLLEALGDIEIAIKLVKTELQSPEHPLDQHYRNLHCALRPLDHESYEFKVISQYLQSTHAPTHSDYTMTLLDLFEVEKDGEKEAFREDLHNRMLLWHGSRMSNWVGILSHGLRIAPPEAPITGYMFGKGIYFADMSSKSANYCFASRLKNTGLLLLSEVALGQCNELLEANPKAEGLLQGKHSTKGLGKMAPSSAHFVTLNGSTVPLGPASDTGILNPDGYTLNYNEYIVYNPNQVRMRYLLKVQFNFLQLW

vault PARP = vault PARP (Homo sapiens, UniProt Q9UKK3); experiment: Selectivity: vault PARP inhibition; assay type: biochemical; settings: at concentrations up to 1 μM
vault PARP, sequence (Q9UKK3 whole entry): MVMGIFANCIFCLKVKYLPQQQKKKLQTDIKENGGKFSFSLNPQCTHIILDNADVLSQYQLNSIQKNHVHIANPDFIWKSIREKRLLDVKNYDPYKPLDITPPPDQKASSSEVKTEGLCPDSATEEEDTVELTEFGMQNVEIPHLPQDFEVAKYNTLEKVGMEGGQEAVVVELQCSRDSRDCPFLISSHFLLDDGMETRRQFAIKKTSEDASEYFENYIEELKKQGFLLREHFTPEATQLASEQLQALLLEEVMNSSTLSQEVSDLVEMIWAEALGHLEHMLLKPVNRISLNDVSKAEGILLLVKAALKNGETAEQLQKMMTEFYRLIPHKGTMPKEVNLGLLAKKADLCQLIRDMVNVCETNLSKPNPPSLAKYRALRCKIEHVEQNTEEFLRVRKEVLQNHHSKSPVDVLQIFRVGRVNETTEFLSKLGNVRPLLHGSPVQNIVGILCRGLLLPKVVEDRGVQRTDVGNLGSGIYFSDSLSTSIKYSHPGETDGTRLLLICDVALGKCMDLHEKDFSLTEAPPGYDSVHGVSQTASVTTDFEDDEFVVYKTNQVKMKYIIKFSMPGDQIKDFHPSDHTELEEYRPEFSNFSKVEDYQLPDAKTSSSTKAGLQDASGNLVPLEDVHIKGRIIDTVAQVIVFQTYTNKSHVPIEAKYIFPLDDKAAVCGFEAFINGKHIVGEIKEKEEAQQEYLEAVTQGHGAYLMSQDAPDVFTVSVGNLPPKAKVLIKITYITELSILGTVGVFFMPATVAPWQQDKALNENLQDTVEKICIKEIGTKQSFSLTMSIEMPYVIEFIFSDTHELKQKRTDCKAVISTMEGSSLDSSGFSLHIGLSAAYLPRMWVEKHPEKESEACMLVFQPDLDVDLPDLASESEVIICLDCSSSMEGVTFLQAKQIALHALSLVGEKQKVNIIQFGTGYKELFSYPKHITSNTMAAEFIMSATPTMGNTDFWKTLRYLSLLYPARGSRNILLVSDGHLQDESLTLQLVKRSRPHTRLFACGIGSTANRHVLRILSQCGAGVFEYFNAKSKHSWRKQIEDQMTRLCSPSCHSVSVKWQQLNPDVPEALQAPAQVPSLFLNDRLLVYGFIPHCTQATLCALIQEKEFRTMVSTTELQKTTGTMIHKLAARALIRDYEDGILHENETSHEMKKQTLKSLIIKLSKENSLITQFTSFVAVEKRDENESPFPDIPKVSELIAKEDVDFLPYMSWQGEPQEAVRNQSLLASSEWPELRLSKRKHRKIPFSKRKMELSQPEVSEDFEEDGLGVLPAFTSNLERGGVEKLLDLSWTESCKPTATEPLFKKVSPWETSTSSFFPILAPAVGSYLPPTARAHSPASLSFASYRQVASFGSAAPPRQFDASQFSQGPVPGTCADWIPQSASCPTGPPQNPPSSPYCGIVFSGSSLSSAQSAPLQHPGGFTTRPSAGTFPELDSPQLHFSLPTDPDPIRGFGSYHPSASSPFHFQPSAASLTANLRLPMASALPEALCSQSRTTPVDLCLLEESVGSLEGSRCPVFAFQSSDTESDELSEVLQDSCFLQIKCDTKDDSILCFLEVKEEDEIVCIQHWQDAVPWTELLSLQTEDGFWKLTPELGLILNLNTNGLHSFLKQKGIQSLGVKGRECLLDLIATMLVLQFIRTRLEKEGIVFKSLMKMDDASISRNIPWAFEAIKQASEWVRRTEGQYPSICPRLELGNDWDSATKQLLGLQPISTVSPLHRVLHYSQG

wild-type ES cells = experiment: Rad51 focus formation, wild-type ES cells; assay type: cell-based, mouse; settings: 48 hours
Procedure: (§1) ES cells were cultured for 48 h in various concentrations of PARP inhibitor fixed in 4% paraformaldehyde in PBS and permeabilised with 0.2% Triton X100 in PBS. Cells were stained with a 1:100 dilution of rabbit anti-Rad51 ployclonal antibody (Ab 551922, BD-Pharmingen, Oxford, UK). After washing, the primary antibody was visualised with Alexa Fluor-555 goat anti-rabbit IgG (Alexa) and nuclei with TO-PRO-3 iodide (Molecular Probes). Rad51 foci and γH2Ax foci were visualised with and quantified using a Leica TCS-SP2 confocal microscope.
(§2) Wild-type, and Brca1 and Brca2 defective ES cells were exposed to differing concentrations of KU0058684 for 48 hours. Cells were then fixed and stained for RAD51 foci as described by Tarsounas (Tarsounas M et al Oncogene. 2003 22(8): 1115-23).

MCF7-3.23 cells = experiment: Clonal survival, BRCA1 silenced MCF7-3.23 cells; assay type: cell-based, human
Source text: (§3) Log concentration of inhibitor is plotted against log surviving fraction of cells.
(§4) The MCF7 scrambled and MCF7-3.23 cell lines were generated by stable transfection of MCF7 mammary adenocarcinoma cells with gene specific pSUPER constructs. Gene specific pSUPER constructs were generated expressing the following RNAi target sequences: (i) human BRCA1 (SEQ ID NO:3) 5r-[…]-3′ (ii) scrambled control 5′-(SEQ ID NO:4) […]-3′. A 1.8 kb fragment containing the human EF1a promoter and the blasticidin resistance gene (bsd) was subcloned from pEFBsd (Invitrogen) into the SapI site of the resultant pSUPER constructs, generated pSUPER-Bsd-BRCA1 and pSUPER-Bsd-scrambled. MCF7 cells were transfected with these plasmids using FuGene6 (Roche) according to the manufacturers instructions. After selection in blasticidin, resistant clones were assessed by real time PCR for silencing of BRCA1 mRNA (Egawa et al Oncology. 2001; 61(4): 293-8; Egawa et al Int J. Cancer. 2001 Jul. 20; 95(4):255-9). Clones with reduced levels of BRCA1 mRNA were cultured (under blasticidin selection) over 8 passages and the real-time assay repeated.

PARP-3 = PARP-3 (Homo sapiens, UniProt Q9Y6F1); experiment: Selectivity: PARP-3 inhibition; assay type: biochemical; settings: at concentrations up to 1 μM
PARP-3, sequence (Q9Y6F1 whole entry, species assumed): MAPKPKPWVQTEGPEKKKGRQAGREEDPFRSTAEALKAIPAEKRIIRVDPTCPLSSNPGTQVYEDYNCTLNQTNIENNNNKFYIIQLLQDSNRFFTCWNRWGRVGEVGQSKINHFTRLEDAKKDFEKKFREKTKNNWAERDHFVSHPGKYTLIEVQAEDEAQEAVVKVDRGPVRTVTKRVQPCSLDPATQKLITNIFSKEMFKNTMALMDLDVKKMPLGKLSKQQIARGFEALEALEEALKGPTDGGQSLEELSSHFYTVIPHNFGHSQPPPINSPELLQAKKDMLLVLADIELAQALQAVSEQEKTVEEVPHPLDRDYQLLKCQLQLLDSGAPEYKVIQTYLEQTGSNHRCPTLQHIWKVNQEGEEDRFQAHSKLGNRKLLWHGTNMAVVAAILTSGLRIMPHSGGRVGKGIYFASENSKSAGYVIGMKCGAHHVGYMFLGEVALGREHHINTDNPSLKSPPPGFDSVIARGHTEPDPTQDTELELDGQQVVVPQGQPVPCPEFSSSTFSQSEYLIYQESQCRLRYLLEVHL

[2] = system: Brca1 and Brca2 deficient cells; experiment: Timed-exposure clonogenic assay, Brca1 and Brca2 deficient cells; assay type: cell-based, mouse
Procedure: (§5) For measurement of sensitivity to chemical inhibitors, cell cultures e.g. ES cells or mouse embryonic fibroblasts, in exponential growth were trypsinised and seeded at various densities in 6-well plates onto confluent monolayer of Mitomycin C (MMC) inactivated mouse embryonic fibroblasts and, where appropriate, treated with inhibitors after 18 h. For continuous exposure, cells were re-fed every 4 days with fresh medium and inhibitor. For timed exposures, inhibitor was added for the specified period then cells were washed and re-fed with fresh medium. After 10-14 days, cells were washed with PBS, fixed in methanol and stained with crystal violet. Colonies containing greater than approximately 50 cells were counted. Experiments were performed at least three times in triplicate.
Cells were exposed to different concentrations of KU0058684 for defined periods of time. The inhibitor was then removed and the effects measured using a clonogenic assay. The inhibitory effects of KU0058684 on clonal growth were apparent after a relatively short exposure time, 4 h, and were essentially complete by 24 h exposure (FIGS. 5 and 6).

Brca2 deficient ES cells = experiment: Clonogenic assay, continuous exposure, Brca2 deficient ES cells; assay type: cell-based, mouse
Procedure: as §5

[3] = system: wild-type, Fanca−/−, Fancc−/− and Fanca−/−c−/− cells; experiment: RAD51 focus formation in wild-type and FA fibroblasts; assay type: cell-based, mouse; settings: 48 hours exposure
Procedure: The percentage of cells with >5 foci per cell was quantified.
as §1

[4] = system: Brca1 or Brca2 deficient cells; experiment: Rad51 focus formation, Brca1 or Brca2 deficient ES cells; assay type: cell-based, mouse; settings: 48 hours
Procedure: as §1, §2

MCF7-scrambled cells = experiment: Clonal survival, BRCA1 wild-type MCF7-scrambled cells; assay type: cell-based, human; settings: continuous exposure 12-14 days
Source text: as §3, §4

PARP-1 = PARP-1 (Homo sapiens, UniProt P09874); experiment: PARP-1 enzyme activity inhibition; assay type: biochemical; settings: read-out: IC50 against PARP-1 enzyme activity
PARP-1, sequence (P09874 whole entry): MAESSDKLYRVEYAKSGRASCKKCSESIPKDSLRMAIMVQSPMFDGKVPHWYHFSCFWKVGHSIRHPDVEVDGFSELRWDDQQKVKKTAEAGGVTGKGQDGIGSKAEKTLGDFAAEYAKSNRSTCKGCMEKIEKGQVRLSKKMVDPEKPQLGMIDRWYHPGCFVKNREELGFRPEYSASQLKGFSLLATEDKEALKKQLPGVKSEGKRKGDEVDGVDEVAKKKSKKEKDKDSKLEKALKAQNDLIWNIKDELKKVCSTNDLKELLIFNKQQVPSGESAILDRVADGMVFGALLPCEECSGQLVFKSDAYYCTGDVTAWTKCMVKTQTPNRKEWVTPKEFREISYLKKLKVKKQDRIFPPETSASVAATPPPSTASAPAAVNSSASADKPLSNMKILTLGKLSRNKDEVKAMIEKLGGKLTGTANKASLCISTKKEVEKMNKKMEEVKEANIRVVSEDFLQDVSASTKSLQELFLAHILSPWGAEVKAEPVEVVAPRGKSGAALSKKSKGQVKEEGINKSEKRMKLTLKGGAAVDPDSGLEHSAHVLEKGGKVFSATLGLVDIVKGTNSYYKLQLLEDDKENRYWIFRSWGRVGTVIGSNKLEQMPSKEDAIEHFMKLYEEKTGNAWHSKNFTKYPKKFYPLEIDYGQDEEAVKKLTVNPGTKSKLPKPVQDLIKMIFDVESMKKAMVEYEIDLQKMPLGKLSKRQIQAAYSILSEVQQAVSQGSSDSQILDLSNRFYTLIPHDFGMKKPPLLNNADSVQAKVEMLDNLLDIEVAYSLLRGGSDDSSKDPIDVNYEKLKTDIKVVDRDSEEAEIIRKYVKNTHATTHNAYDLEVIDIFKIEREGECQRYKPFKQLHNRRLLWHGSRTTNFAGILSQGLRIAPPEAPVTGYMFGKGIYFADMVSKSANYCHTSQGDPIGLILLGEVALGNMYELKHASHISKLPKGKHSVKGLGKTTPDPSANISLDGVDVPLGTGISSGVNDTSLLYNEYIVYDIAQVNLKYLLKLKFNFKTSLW
Procedure: Chemical inhibitors were dissolved in DMSO at 10 mM and stored at −20° C. in the dark.

[5] = system: wild-type, Fanca−/−, Fancc−/− and Fanca−/−c−/− cells; experiment: γH2AX foci formation in wild-type and FA fibroblasts; assay type: cell-based, mouse; settings: 48 hours exposure
[6] = system: RAD51 siRNA transfected HeLa cells; experiment: Clonogenic survival, HeLa cells with RAD51 RNAi silencing; assay type: cell-based, human; settings: pSUPER-CFP-17/19/23 transfected HeLa cells, constant exposure 12-14 days; read-out: SF50 (the source's name)
Source text: Clonogenic survival curves of transfected HeLa cells under constant exposure to a range of concentrations of PARP inhibitor (KU0058684) for 12-14 days. […] SF50 for pSUPER-CFP-CONTROL transfected cells is >1×10^−5 M and is 1×10^−6 M for pSUPER-CFP-17/19/23 transfected cells.
HeLa cells were transfected using FuGene (Roche, USA) according to the manufacturers instructions. For clonogenic survival assays, cells were co-transfected in 6 well plates with pSUPER and a vector expressing blasticidin resistance (pEF-Bsd, Invitrogen, USA) at a ratio of 10:1 (pSUPER: pEF-Bsd). Twenty-four hours after transfection, cells were plated into replica plates and this was followed by treatment with PARP inhibitors and blasticidin 48 hours post transfection.

[7] = timed exposure, inhibitor then removed

O=C1CCC(=O)N1c1cc(Cc2n[nH]c(=O)c3ccccc23)ccc1F [KU0058684]
mitotic chromosome aberrations [1]: frequent major aberrations | inhibition of poly(ADP-ribose) polymerase activity of PARP-1 and PARP-2 (PARP-2): potent and specific inhibitors | inhibition of vault PARP (vault PARP): do not inhibit | Rad51 foci formation (wild-type ES cells): caused Rad51 foci formation in a dose-dependent fashion | sensitivity of MCF7-3.23 cells compared with MCF7-scrambled cells (MCF7-3.23 cells): significantly more sensitive | sensitivity (clonal survival) (MCF7-3.23 cells; MCF7-3.23, continuous exposure 12-14 days): both cell lines were sensitive | inhibition of PARP-3 (PARP-3): do not inhibit | reversibility of the effects of PARP inhibition ([2]; short exposure followed by 10-14 days in the absence of inhibitor): irreversible | exposure time after which inhibitory effects on clonal growth were apparent [2, 7]: 4 h | exposure time by which inhibitory effects on clonal growth were essentially complete [2, 7]: ≤ 24 h | pIC50 (Brca2 deficient ES cells; Brca2 deficient ES cells, continuous exposure, read-out: SF50 (dosage at which 50% of cells survived)): 7.82 | enhanced sensitivity compared to wild-type (Brca2 deficient ES cells; Brca2 mutant cells vs wild-type): 133 fold | sensitivity of Brca2 deficient cells compared to otherwise isogenic cells (Brca2 deficient ES cells; clonogenic assay): extremely sensitive | RAD51 focus formation [3]: Induction of RAD51 focus formation | Rad51 foci formation [4]: no foci were induced | sensitivity (clonal survival) (MCF7-scrambled cells): both cell lines were sensitive | pIC50 (PARP-1): 8.49 | γH2AX foci [5]: induction of γH2AX foci in all cells | pIC50 [6]: 6.00
